Some results are limits rather than exact numbers.

The test has as its system NCIH929.1 cells. Description: Cell viability assay (CellTiter-Glo 2.0, ATP quantification). As to conditions: NCIH929.1 cell viability, CellTiter-Glo 2.0, 96 hr incubation, top concentration 1 μM. The format is cell-based. In a few lines: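 Cells seeded at 750/well in RPMI with 10% FBS and 0.05 mM 2-mercaptoethanol, exposed 96 h at 37 °C to 10-point half-log dilutions in duplicate, top 1 μM. Viability by CellTiter-Glo 2.0 ATP luminescence, with a day-0 read as cytostatic baseline (CT0).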
On the technique in general: Cellular ATP, detected with luciferase, serves as a proxy for viable cell number.
With `O=C1CCC(N2C(=O)c3cccc(NCc4cnn(C5CCN(CC6(C(F)(F)F)CCC6)CC5)c4)c3C2=O)C(=O)N1` (centres unmarked) [Compound 140, 2-(2,6-dioxopiperidin-3-yl)-4-(((1-(1-((1-(trifluoromethyl)cyclobutyl)methyl)piperidin-4-yl)-1H-pyrazol-4-yl)methyl)amino)isoindoline-1,3-dione], the GI50 (commonly the concentration giving 50% growth inhibition) was less than 0.1 µM.

`CC1(C(=O)N2CCC(n3ncc(CNc4cccc5c4C(=O)N(C4CCC(=O)NC4=O)C5=O)c3C#CC3CC3)CC2)CCC1` (centres unmarked) [Compound 190, 4-(((5-(Cyclopropylethynyl)-1-(1-(1-methylcyclobutane-1-carbonyl)piperidin-4-yl)-1H-pyrazol-4-yl)methyl)amino)-2-(2,6-dioxopiperidin-3-yl)isoindoline-1,3-dione] displayed a GI50 of less than 0.1 µM.

`CN(CCCn1cc(CNc2cccc3c2C(=O)N(C2CCC(=O)NC2=O)C3=O)cn1)C(=O)OC(C)(C)C` (centres unmarked) [Compound 154, tert-butyl N-[3-[4-[[[2-(2,6-dioxo-3-piperidyl)-1,3-dioxo-isoindolin-4-yl]amino]methyl]pyrazol-1-yl]propyl]-N-methyl-carbamate] returned a GI50 of less than 0.1 µM.

Take `O=C1CCC(N2C(=O)c3cccc(NCc4cnn(C5CCN(C6CCCCC6)CC5)c4)c3C2=O)C(=O)N1` (centres unmarked) [Compound 133, 4-(((1-(1-cyclohexylpiperidin-4-yl)-1H-pyrazol-4-yl)methyl)amino)-2-(2,6-dioxopiperidin-3-yl)isoindoline-1,3-dione]: the GI50 was less than 0.1 µM.

In turn, `Cc1ccc(N2CCC(C(=O)N3CCC(n4cc(CNc5cccc6c5C(=O)N(C5CCC(=O)NC5=O)C6=O)cn4)CC3)CC2)nc1` (centres unmarked) [Compound 118, 2-(2,6-dioxopiperidin-3-yl)-4-(((1-(1-(1-(5-methylpyridin-2-yl)piperidine-4-carbonyl)piperidin-4-yl)-1H-pyrazol-4-yl)methyl)amino)isoindoline-1,3-dione] gave a GI50 of less than 0.001 µM.

The compound `CC1(CN2CCC(n3cc(CNc4cccc5c4C(=O)N(C4CCC(=O)NC4=O)C5=O)cn3)CC2)CCC1` (centres unmarked) [Compound 139, 2-(2,6-Dioxo-piperidin-3-yl)-4-({1-[1-(1-methyl-cyclobutylmethyl)-piperidin-4-yl]-1H-pyrazol-4-ylmethyl}-amino)-isoindole-1,3-dione] displayed a 50% growth inhibitory concentration (GI50) of less than 0.1 µM.

Consider `CC(C)(C)OC(=O)N1CCC(n2cc(C(Nc3cccc4c3C(=O)N(C3CCC(=O)NC3=O)C4=O)c3cn(C4CCN(C(=O)OC(C)(C)C)CC4)nn3)nn2)CC1` (centres unmarked) [Compound 203, tert-Butyl 4-[4-[[1-(1-tert-butoxycarbonyl-4-piperidyl)triazol-4-yl]-[[2-(2,6-dioxo-3-piperidyl)-1,3-dioxo-isoindolin-4-yl]amino]methyl]triazol-1-yl]piperidine-1-carboxylate], for which the GI50 is greater than 0.1 µM.

The compound `CC(C)CCC(=O)N1CCC(n2cc(CNc3cccc4c3C(=O)N(C3CCC(=O)NC3=O)C4=O)cn2)CC1` (centres unmarked) [Compound 23, 2-(2,6-dioxopiperidin-3-yl)-4-(((1-(1-(4-methylpentanoyl)piperidin-4-yl)-1H-pyrazol-4-yl)methyl)amino)isoindoline-1,3-dione] showed a GI50 of less than 0.001 µM.

On to `C#Cc1c(CNc2cccc3c2C(=O)N(C2CCC(=O)NC2=O)C3=O)cnn1C1CCN(C(=O)C2(C)CCC2)CC1` (centres unmarked) [Compound 192, 2-(2,6-Dioxopiperidin-3-yl)-4-(((5-ethynyl-1-(1-(1-methylcyclobutane-1-carbonyl)piperidin-4-yl)-1H-pyrazol-4-yl)methyl)amino)isoindoline-1,3-dione], for which the GI50 is less than 0.1 µM.

`O=C1CCC(N2C(=O)c3cccc(NCc4cnn(C5CCN(C(=O)C6C7(CC7)C67CC7)CC5)c4)c3C2=O)C(=O)N1` (centres unmarked) [Compound 98, 2-(2,6-dioxopiperidin-3-yl)-4-(((1-(1-(dispiro[2.0.24.13]heptane-7-carbonyl)piperidin-4-yl)-1H-pyrazol-4-yl)methyl)amino)isoindoline-1,3-dione] gave a GI50 of less than 0.001 µM.

For the compound `CC1(C(=O)N2CCC(n3ncc4c3CCC4Nc3cccc4c3C(=O)N(C3CCC(=O)NC3=O)C4=O)CC2)CCC1` (centres unmarked) [Compound 207, 2-(2,6-Dioxo-piperidin-3-yl)-4-{1-[1-(1-methyl-cyclobutanecarbonyl)-piperidin-4-yl]-1,4,5,6-tetrahydro-cyclopentapyrazol-4-ylamino}-isoindole-1,3-dione], the GI50 is less than 0.1 µM.

Compound `CC(C)(C)OC(=O)N1CCC(n2cc(CNc3cccc4c3C(=O)N(C3CCC(=O)NC3=O)C4=O)cn2)C(F)(F)C1` (centres unmarked) [Compound 176, tert-Butyl 4-(4-(((2-(2,6-dioxopiperidin-3-yl)-1,3-dioxoisoindolin-4-yl)amino)methyl)-1H-pyrazol-1-yl)-3,3-difluoropiperidine-1-carboxylate] returned a GI50 of less than 0.1 µM.

With `CC1(C(=O)N2CCC(n3cc(CNc4cccc5c4C(=O)N(C4CCC(=O)NC4=O)C5=O)cn3)CC2)COC1` (centres unmarked) [Compound 61, 2-(2,6-dioxopiperidin-3-yl)-4-(((1-(1-(3-methyloxetane-3-carbonyl)piperidin-4-yl)-1H-pyrazol-4-yl)methyl)amino)isoindoline-1,3-dione], the GI50 was less than 0.1 µM.

In turn, `CCC1(C(=O)N2CCC(n3cc(CNc4cccc5c4C(=O)N(C4CCC(=O)NC4=O)C5=O)cn3)CC2)CCC1` (centres unmarked) [Compound 86, 2-(2,6-dioxopiperidin-3-yl)-4-(((1-(1-(1-ethylcyclobutane-1-carbonyl)piperidin-4-yl)-1H-pyrazol-4-yl)methyl)amino)isoindoline-1,3-dione] yielded a GI50 of less than 0.1 µM.

As for `O=C1CCC(N2C(=O)c3cccc(NCc4cnn(C5CCC(CC6CCCCC6)CC5)c4)c3C2=O)C(=O)N1` (centres unmarked) [Compound 177, 4-(((1-(4-(Cyclohexylmethyl)cyclohexyl)-1H-pyrazol-4-yl)methyl)amino)-2-(2,6-dioxopiperidin-3-yl)isoindoline-1,3-dione], the GI50 was less than 0.1 µM.

Compound `Cc1nn(C2CCN(C(=O)C3(C)CCC3)CC2)c(C)c1CNc1cccc2c1C(=O)N(C1CCC(=O)NC1=O)C2=O` (centres unmarked) [Compound 171, 4-(((3,5-Dimethyl-1-(1-(1-methylcyclobutane-1-carbonyl)piperidin-4-yl)-1H-pyrazol-4-yl)methyl)amino)-2-(2,6-dioxopiperidin-3-yl)isoindoline-1,3-dione] showed a GI50 of less than 0.1 µM.

In turn, `O=C1CCC(N2C(=O)c3cccc(NCc4cnn(C5CCN(CC(F)(F)F)CC5)c4)c3C2=O)C(=O)N1` (centres unmarked) [Compound 160, 2-(2,6-Dioxo-piperidin-3-yl)-4-({1-[1-(2,2,2-trifluoro-ethyl)-piperidin-4-yl]-1H-pyrazol-4-ylmethyl}-amino)-isoindole-1,3-dione] had a GI50 of less than 0.1 µM.

The compound `CC(C)(C)C(=O)N1CCC(n2cc(CNc3cccc4c3C(=O)N(C3CCC(=O)NC3=O)C4=O)cn2)CC1` (centres unmarked) [Compound 90, 2-(2,6-dioxopiperidin-3-yl)-4-(((1-(1-pivaloylpiperidin-4-yl)-1H-pyrazol-4-yl)methyl)amino)isoindoline-1,3-dione] had a GI50 of less than 0.001 µM.

`O=C1CCC(N2C(=O)c3cccc(NCc4cnn(C5CCN(C(=O)CC67CC8CC(CC(C8)C6)C7)CC5)c4)c3C2=O)C(=O)N1` (centres unmarked) [Compound 47, 4-(((1-(1-(2-(adamantan-1-yl)acetyl)piperidin-4-yl)-1H-pyrazol-4-yl)methyl)amino)-2-(2,6-dioxopiperidin-3-yl)isoindoline-1,3-dione] returned a GI50 of less than 0.001 µM.

In turn, `O=C1CCC(N2C(=O)c3cccc(NCc4cnn(C5CCN(C(=O)C6CCCC6)CC5)c4)c3C2=O)C(=O)N1` (centres unmarked) [Compound 32, 4-(((1-(1-(cyclopentanecarbonyl)piperidin-4-yl)-1H-pyrazol-4-yl)methyl)amino)-2-(2,6-dioxopiperidin-3-yl)isoindoline-1,3-dione] came in with a GI50 of less than 0.1 µM.

Take `O=C1CCC(N2C(=O)c3cccc(NCc4cnn(C5CCN(C(=O)C67CC(CO6)C7)CC5)c4)c3C2=O)C(=O)N1` (centres unmarked) [Compound 91, 4-(((1-(1-(2-oxabicyclo[2.1.1]hexane-1-carbonyl)piperidin-4-yl)-1H-pyrazol-4-yl)methyl)amino)-2-(2,6-dioxopiperidin-3-yl)isoindoline-1,3-dione]: the GI50 was less than 0.1 µM.

`CC(C)(C)OC(=O)N1CCC(F)(C(=O)N2CCC(n3cc(CNc4cccc5c4C(=O)N(C4CCC(=O)NC4=O)C5=O)cn3)CC2)CC1` (centres unmarked) [Compound 102, tert-butyl 4-(4-(4-(((2-(2,6-dioxopiperidin-3-yl)-1,3-dioxoisoindolin-4-yl)amino)methyl)-1H-pyrazol-1-yl)piperidine-1-carbonyl)-4-fluoropiperidine-1-carboxylate] displayed a GI50 of less than 0.1 µM.

As to `O=C1CCC(N2C(=O)c3cccc(NCc4cnn(C5CCN(C(=O)c6ccccc6)CC5)c4)c3C2=O)C(=O)N1` (centres unmarked) [Compound 16, 4-(((1-(1-benzoylpiperidin-4-yl)-1H-pyrazol-4-yl)methyl)amino)-2-(2,6-dioxopiperidin-3-yl)isoindoline-1,3-dione], the GI50 was less than 0.1 µM.

With `CC(C)C(=O)N1CCC(n2cc(CNc3cccc4c3C(=O)N(C3CCC(=O)NC3=O)C4=O)cn2)CC1` (centres unmarked) [Compound 9, 2-(2,6-dioxopiperidin-3-yl)-4-(((1-(1-isobutyrylpiperidin-4-yl)-1H-pyrazol-4-yl)methyl)amino)isoindoline-1,3-dione], the GI50 was less than 0.1 µM.

On to `O=C1CCC(N2C(=O)c3cccc(NCc4cnn(C5CCN(CC6(C(F)(F)F)CC6)CC5)c4)c3C2=O)C(=O)N1` (centres unmarked) [Compound 137, 2-(2,6-dioxopiperidin-3-yl)-4-(((1-(1-((1-(trifluoromethyl)cyclopropyl)methyl)piperidin-4-yl)-1H-pyrazol-4-yl)methyl)amino)isoindoline-1,3-dione], for which the GI50 was less than 0.1 µM.

Regarding `CC1(C)C[C@H](n2cc(CNc3cccc4c3C(=O)N(C3CCC(=O)NC3=O)C4=O)cn2)CCN1C(=O)C12C3C4C5C3C1C5C42` (stereo partly drawn) [Compound 196, 4-[[1-[(4R)-1-(Cubane-1-carbonyl)-2,2-dimethyl-4-piperidyl]pyrazol-4-yl]methylamino]-2-(2,6-dioxo-3-piperidyl)isoindoline-1,3-dione], the GI50 was less than 0.001 µM.

Source of the values: US11753397B2, “Cereblon binders for the degradation of ikaros” (C4 Therapeutics, Inc., priority 2018, dated 2023).
